From patent US10945432B2, “Active compound combinations comprising a (thio)carboxamide derivative and a fungicidal compound” (BAYER CROPSCIENCE AKTIENGESELLSCHAFT, priority 2013, dated 2021)

Legend:
Type in all cases: in vivo
[1] = test system: Botrytis cinerea; assay: Botrytis test (beans)/preventive; conditions: Table B1, 2 days after inoculation
Method: (§1) • Solvent: 24.5 parts by weight of acetone • 24.5 parts by weight of dimethylacetamide • Emulsifier: 1 part by weight of alkylaryl polyglycol ether
(§2) To produce a suitable preparation of active compound, 1 part by weight of active compound is mixed with the stated amounts of solvent and emulsifier, and the concentrate is diluted with water to the desired concentration.
To test for preventive activity, young plants are sprayed with the preparation of active compound. After the spray coating has dried on, 2 small pieces of agar covered with growth of Botrytis cinerea are placed on each leaf. The inoculated plants are placed in a darkened chamber at 20° C. and a relative atmospheric humidity of 100%.
2 days after the inoculation, the size of the lesions on the leaves is evaluated. 0% means an efficacy which corresponds to that of the untreated control, while an efficacy of 100% means that no disease is observed.

[2] = test system: Pyrenophora teres; assay: Pyrenophora teres-test (barley)/preventive; conditions: Table C1, 8 days after inoculation
Method: (§3) • Solvent: 49 parts by weight of N,N-dimethylacetamide • Emulsifier: 1 part by weight of alkylaryl polyglycol ether
(§4) To produce a suitable preparation of active compound, 1 part by weight of active compound or active compound combination is mixed with the stated amounts of solvent and emulsifier, and the concentrate is diluted with water to the desired concentration.
(§5) To test for preventive activity, young plants are sprayed with the preparation of active compound or active compound combination at the stated rate of application. After the spray coating has been dried, the plants are sprayed with a spore suspension of Pyrenophora teres. The plants remain for 48 hours in an incubation cabinet at approximately 20° C. and a relative atmospheric humidity of approximately 100%. The plants are placed in the greenhouse at a temperature of approximately 20° C. and a relative atmospheric humidity of approximately 80%.
The test is evaluated 8 days after the inoculation. 0% means an efficacy which corresponds to that of the untreated control, while an efficacy of 100% means that no disease is observed.

[3] = test system: Venturia inaequalis; assay: Venturia test (apples)/preventive; conditions: 10 days after inoculation
Method: as §1, §2
To test for preventive activity, young plants are sprayed with the preparation of active compound at the stated rate of application. After the spray coating has dried on, the plants are inoculated with an aqueous conidia suspension of the causal agent of apple scab (Venturia inaequalis) and then remain for 1 day in an incubation cabinet at approximately 20° C. and a relative atmospheric humidity of 100%. The plants are then placed in a greenhouse at approximately 21° C. and a relative atmospheric humidity of approximately 90%.
The test is evaluated 10 days after the inoculation. 0% means an efficacy which corresponds to that of the untreated control, while an efficacy of 100% means that no disease is observed.

[4] = test system: Septoria tritici; assay: Septoria tritici-test (wheat)/preventive; conditions: 21 days after inoculation
Method: as §3, §4
as §5, with “suspension of Septoria tritici. The plants” for “suspension of Pyrenophora teres. The plants”, “of approximately 100% and afterwards for 60 hours at approximately 15° C. in a translucent incubation cabinet at a relative atmospheric humidity of approximately 100%. The” for “of approximately 100%. The”, “of approximately 15° C. and” for “of approximately 20° C. and”
The test is evaluated 21 days after the inoculation. 0% means an efficacy which corresponds to that of the untreated control, while an efficacy of 100% means that no disease is observed.

[5] = test system: Sphaerotheca fuliginea; assay: Sphaerotheca test (cucumbers)/preventive; conditions: Table E1, 7 days after inoculation
Method: as §1, §2
(§6) To test for preventive activity, young plants are sprayed with the preparation of active compound at the stated rate of application. After the spray coating has dried on, the plants are inoculated with an aqueous spore suspension of Sphaerotheca fuliginea. The plants are then placed in a greenhouse at approximately 23° C. and a relative atmospheric humidity of approximately 70%.
The test is evaluated 7 days after the inoculation. 0% means an efficacy which corresponds to that of the untreated control, while an efficacy of 100% means that no disease is observed.

[6] = test system: Alternaria solani; assay: Alternaria test (tomatoes)/preventive; conditions: 3 days after inoculation
Method: as §1, §2
as §6, with “Alternaria solani.” for “Sphaerotheca fuliginea.”, “an incubation cabinet” for “a greenhouse”, “20°” for “23°”, “100%.” for “approximately 70%.”
The test is evaluated 3 days after the inoculation. 0% means an efficacy which corresponds to that of the untreated control while an efficacy of 100% means that no disease is observed.

CC1(C)N=C(c2cnc3ccccc3c2)c2ccccc2C1(F)F [b27, 3-(4,4-difluoro-3,3-dimethyl-3,4-dihydroisoquinolin-1-yl)quinoline]
Efficacy in % found ([1]; 1 ppm a.i.): 60%
Efficacy in % found ([2]; 60 ppm a.i.): 38%
Efficacy in % found ([2]; 240 ppm a.i.): 75%
Efficacy in % found ([3]; Table F1, 0.5 ppm a.i.): 23%

CON(C(=O)c1cn(C)nc1C(F)F)C(C)Cc1c(Cl)cc(Cl)cc1Cl (centres unmarked) [b29, 3-(difluoromethyl)-N-methoxy-1-methyl-N-[1-(2,4,6-trichlorophenyl)propan-2-yl]-1H-pyrazole-4-carboxamide]
Efficacy in % found ([4]; Table D1, 5 ppm a.i.): 94%
Efficacy in % found ([5]; 0.25 ppm a.i.): 30%
Efficacy in % found ([5]; 1 ppm a.i.): 30%

Cc1nn(C)c(Nc2c(F)cc(Cl)cc2F)c1-c1ccc(F)cc1Cl [b39, N-(4-chloro-2,6-difluorophenyl)-4-(2-chloro-4-fluorophenyl)-1,3-dimethyl-1H-pyrazol-5-amine]
Efficacy in % found ([6]; Table A1, 1 ppm a.i.): 17%
Efficacy in % found ([4]; Table D1, 60 ppm a.i.): 50%
Efficacy in % found ([4]; Table D1, 240 ppm a.i.): 88%

CC(O)(Cn1cncn1)c1ccc(Oc2ccc(Cl)cc2)cc1C(F)(F)F (centres unmarked) [b40, 2-[4-(4-chlorophenoxy)-2-(trifluoromethyl)phenyl]-1-(1H-1,2,4-triazol-1-yl)propan-2-ol]
Efficacy in % found ([6]; Table A1, 2.5 ppm a.i.): 66%
Efficacy in % found ([5]; 2.5 ppm a.i.): 37%
Efficacy in % found ([5]; 10 ppm a.i.): 85%

CCC(O)(Cn1cncn1)c1ccc(Oc2ccc(Cl)cc2)cc1C(F)(F)F (centres unmarked) [b41, 2-[4-(4-chlorophenoxy)-2-(trifluoromethyl)phenyl]-1-(1H-1,2,4-triazol-1-yl)butan-2-ol]
Efficacy in % found ([1]; 10 ppm a.i.): 36%
Efficacy in % found ([2]; 15 ppm a.i.): 25%
Efficacy in % found ([2]; 60 ppm a.i.): 0%

CC1(C)CN=C(c2cnc3ccccc3c2)c2cccc(F)c2O1 [b45, 9-fluoro-2,2-dimethyl-5-(quinolin-3-yl)-2,3-dihydro-1,4-benzoxazepine]
Efficacy in % found ([6]; Table A2, 0.5 ppm a.i.): 24%
Efficacy in % found ([4]; Table D2, 50 ppm a.i.): 0%
Efficacy in % found ([4]; Table D2, 200 ppm a.i.): 0%
Efficacy in % found ([3]; Table F2, 1 ppm a.i.): 0%

Cc1nc2c(F)cccc2cc1Oc1cccc(F)c1C(C)(C)O [b46, 2-{2-fluoro-6-[(8-fluoro-2-methylquinolin-3-yl)oxy]phenyl}propan-2-ol]
Efficacy in % found ([6]; Table A2, 0.5 ppm a.i.): 18%
Efficacy in % found ([6]; Table A2, 1 ppm a.i.): 24%
Efficacy in % found ([4]; Table D2, 50 ppm a.i.): 0%
Efficacy in % found ([4]; Table D2, 200 ppm a.i.): 67%
Efficacy in % found ([3]; Table F2, 0.5 ppm a.i.): 18%

Cc1nc2c(F)c(F)ccc2cc1Oc1cccc(F)c1C(C)(C)O [b47, 2-{2-[(7,8-difluoro-2-methylquinolin-3-yl)oxy]-6-fluorophenyl}propan-2-ol]
Efficacy in % found ([6]; Table A2, 0.5 ppm a.i.): 9%
Efficacy in % found ([6]; Table A2, 1 ppm a.i.): 29%
Efficacy in % found ([4]; Table D2, 50 ppm a.i.): 0%
Efficacy in % found ([4]; Table D2, 200 ppm a.i.): 67%
Efficacy in % found ([3]; Table F2, 0.5 ppm a.i.): 30%

CC(C)c1ccc(Cl)cc1CN(C(=O)c1c(C(F)F)nn(C)c1F)C1CC1 [compound A5, N-(5-chloro-2-isopropylbenzyl)-N-cyclopropyl-3-(difluoromethyl)-5-fluoro-1-methyl-1H-pyrazole-4-carboxamide]
Efficacy in % found ([6]; Table A1, 0.5 ppm a.i.): 38%
Efficacy in % found ([6]; Table A1, 1 ppm a.i.): 30%
Efficacy in % found ([6]; Table A2, 0.5 ppm a.i.): 0%
Efficacy in % found ([6]; Table A2, 1 ppm a.i.): 41%
Efficacy in % found ([1]; 1 ppm a.i.): 15%
Efficacy in % found ([2]; 10 ppm a.i.): 13%
Efficacy in % found ([4]; Table D1, 5 ppm a.i.): 50%
Efficacy in % found ([4]; Table D1, 10 ppm a.i.): 50%
Efficacy in % found ([4]; Table D2, 10 ppm a.i.): 17%
Efficacy in % found ([4]; Table D2, 20 ppm a.i.): 67%
Efficacy in % found ([5]; 0.5 ppm a.i.): 30%
Efficacy in % found ([5]; 1 ppm a.i.): 37%
Efficacy in % found ([3]; Table F1, 0.5 ppm a.i.): 0%
Efficacy in % found ([3]; Table F1, 1 ppm a.i.): 0%
Efficacy in % found ([3]; Table F2, 0.5 ppm a.i.): 0%
Efficacy in % found ([3]; Table F2, 1 ppm a.i.): 0%
Efficacy in % found ([3]; Table F2, 2 ppm a.i.): 29%
